Laboratory results reported in patent US20240382498A1, “NOVEL INHIBITOR OF HYPE-MEDIATED AMPYLATION” (Purdue Research Foundation, priority 2023, published 2024).
Numbering of substitutions follows the chain as printed. Read-outs that look alike come from different tables or passages of the source.

Assays:
E234G HYPE = biological target: T1, E234G HYPE (Homo sapiens, UniProt Q9BVA6, E234G); experiment: Fluorescence polarization (FP) microplate autoAMPylation assay with Fl-ATP, E234G HYPE inhibitor HTS, cherrypick validation and concentration-response; assay type: biochemical; conditions: for inhibition at 10 µM / % Inh. Cherry-pick / % Inh. HTS: 10 μM compound; for Mean % Inh.: mean of HTS and cherrypick
T1 construct: Δ102 (aa 103-458) HYPE constructs (WT, E234G, and E234G/H363A); His6-SUMO (cleaved yes); made in house; host or cells: E. coli BL21-DE3-RILP
T1 sequence (Q9BVA6 103-458 E234G): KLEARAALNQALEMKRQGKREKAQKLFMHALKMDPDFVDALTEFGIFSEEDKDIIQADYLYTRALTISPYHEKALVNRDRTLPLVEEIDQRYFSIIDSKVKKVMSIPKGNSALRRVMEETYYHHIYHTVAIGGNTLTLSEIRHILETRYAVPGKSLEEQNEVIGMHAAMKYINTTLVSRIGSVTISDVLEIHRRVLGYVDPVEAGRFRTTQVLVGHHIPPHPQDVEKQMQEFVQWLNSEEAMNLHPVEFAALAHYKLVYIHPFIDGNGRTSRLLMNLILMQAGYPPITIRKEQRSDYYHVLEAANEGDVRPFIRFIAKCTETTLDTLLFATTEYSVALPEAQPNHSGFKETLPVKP
Procedure: Buffer optimization experiments were performed by incubating 0.4 μM of Δ102 HYPE enzyme with 25 nM Fl-ATP (final concentrations) in HTS buffer (50 mM HEPES (pH 7.5), 1 mM MgCl2, 0.1% Triton X-100, 1% DMSO) in the dark at room temperature for 10 min in 384-well black bottom, black wall microplates (20 μL reaction volume). Where specified, 1 mM MgCl2 was replaced with an equivalent concentration of MnCl2, or 0.1% Triton X-100 was replaced with 0.05% or 0.01% Trion X-100. Microplates were snap centrifuged at 1000 g for 10 sec. Microplates were loaded onto a BioTek BioStack NEO2 plate-reader and assessed for fluorescence polarization with 485/530 nm filters and a 55/50 gain adjustment.
A Multidrop 384 reagent dispenser (ThermoFisher) was used to add 0.4 μM HYPE, then 25 nM Fl-ATP (final concentrations) to 384-well black/black microplates (20 μL reaction volume). Both enzyme and nucleotide were dissolved in HTS Buffer. AMPylation Reactions were incubated for 10 min at room temperature in the dark. Microplates were snap centrifuged at 1000 g for 10 sec, then transferred to BioTek BioStack NEO2 plate-reader. Reactions were assessed for fluorescence polarization with 485/530 nm filters and a 55/50 gain adjustment. Z′, S/B, and CV values were determined by fitting the data to Eq. 1, 2, and 3, respectively,
An Echo Liquid Handler (Labcyte) was used to transfer 200 nL of DMSO-dissolved compounds via acoustic-coupled ejection from 10 mM source plates into 384-well black, flat-bottom, black-walled microplates, for a final compound concentration of 10 μM. Compounds were sourced from the following libraries: DIVERset (Chembridge), CNS-Set (Chembridge). The compounds went into columns 3-22 of each plate, while columns 1, 2, 23, and 24 were reserved for equivalent volume of 100% DMSO controls.
A Multidrop 384 reagent dispenser was used to pipette 0.4 μM of WT HYPE (final concentration) dissolved in HTS Buffer into columns 1-22 of the activator plates, and columns 1 and 2 of the inhibitor plates as positive controls. 0.4 μM of E234G HYPE was similarly added to columns 3-24 of the inhibitor plates, and columns 23 and 24 of the […]. Enzymes were then incubated with either compounds or DMSO for 10 min at room temperature.
A Multidrop 384 reagent dispenser was used to pipette 25 nM of Fl-ATP (final concentration) into all wells of each plate, giving a final reaction volume of 20 μL. Plates were then incubated for 10 min at room temperature in the dark, followed by a snap centrifugation at 1000 g for 10 sec. Microplates were loaded onto BioTek BioStack stacker and read in succession for fluorescence polarization with 485/530 nm filters and a 55/50 gain adjustment. Fluorescence polarization values were converted to fractional activation (FA) or fractional inhibition FI) values according to Eq. (3) or (4), respectively,
[formula] [formula] • where μp and μn are the means of the positive (E234G HYPE) and negative (WT HYPE) controls, respectively; and x is the measured value of fluorescence polarization.
Microplate “cherrypicking” validations were performed as described above.
A Multidrop 384 reagent dispenser was used to pipette 0.4 μM of WT or E234G HYPE (final concentrations) dissolved in HTS Buffer into designated microplate wells. 10 μM of DMSO-dissolved compounds (final concentrations) or equivalent volume of 100% DMSO were manually pipetted into their specified wells. Enzymes were incubated with compounds or DMSO for 10 min at room temperature. Reagent dispenser was then used to pipette 25 nM of Fl-ATP (final concentration) into each well, followed by a 10 min incubation at room temperature in the dark. Plates were snap centrifuged at 1000 g for 10 sec, then transferred to BioTek BioStack NEO2 plate-reader. Reactions were assessed for fluorescence polarization with 485/530 nm filters and a 55/50 gain adjustment. EC50 and IC50 values were determined by fitting polarization values to Eq. (5) and (6), respectively, […]

[1] = biological target: T2, IbpA-Fic2 (IbpA-2) AMPylation of Cdc42 (Histophilus somni, UniProt Q06277); experiment: Radioactive in-gel AMPylation assay with WT IbpA-Fic2, Cdc42 and α-32P-ATP (cross reactivity); assay type: biochemical; conditions: 10 μM compound, versus DMSO control
T2 construct: a construct solely containing the second of the two domains, IbpA-2; made in house
Procedure: 1 μM of HYPE (final concentration) and (where specified) 5 μM of T229A BiP (final concentration) were preincubated with 10 μM DMSO-dissolved compound (final concentration) or equivalent volume of 100% DMSO at room temperature for 10 min in HTS Buffer. Reactions were run for 10 min at 30° C. and began with the addition of 0.01 μCi/μL α-32P-ATP (final concentration). All reactions were performed according to our previously described protocol for in vitro radioactive AMPylation assays19. Where specified, 5 μM of T229A BiP (final concentration) was added to reactions before the addition of compound.
All bacterial Fic specificity assays were conducted with 1 μM GST-tagged IbpA-Fic2, 5 μM GST-tagged Q61L Cdc42, and 0.01 μCi/μL α-32P-ATP (all final concentrations). All other reaction parameters were kept as per HYPE radiolabeled in-gel AMPylation assays.

WT HYPE = biological target: T3, WT HYPE (Homo sapiens, UniProt Q9BVA6); experiment: Fluorescence in-gel autoAMPylation assay with WT HYPE and Fl-ATP; assay type: biochemical; conditions: 10 μM compound, versus DMSO control
T3 construct: Δ102 (aa 103-458) HYPE constructs (WT, E234G, and E234G/H363A); His6-SUMO (cleaved yes); made in house; host or cells: E. coli BL21-DE3-RILP
T3 sequence (Q9BVA6 103-458): T1 sequence (Q9BVA6 103-458 E234G) with G132E
Procedure: 1 μM of WT HYPE (final concentration) was preincubated with 10 μM DMSO-dissolved compound (final concentration) or equivalent volume of 100% DMSO at room temperature for 10 min. Reactions were run for 20 hr at 30° C. in the dark and began with the addition of 1 μM Fl-ATP (final concentration). Alternatively, E234G HYPE AMPylation reactions were run at 10 min due to its hyperactivity. All other parameters were held constant. All reactions were performed HTS Buffer (50 mM HEPES, 1 mM MgCl2, 0.1% Triton X-100, pH 7.50). All reactions were quenched with 4×SDS loading dye, boiled for 5 min at 95° C., and samples were run on 12% SDS-PAGE gels. Gels were imaged on a Typhoon 9500 FLA imager (General Electric) for fluorescence at 473 nm. Imaged gels were then stained with Coomassie Brilliant Blue, destained, and imaged for protein concentration. Where specified, 5 μM of T229A BiP (final concentration) was added to reactions before the addition of compound.

HYPE = conditions: pilot screen of nearly 10,000 compounds; cited from earlier work
HeLa cells = experiment: MTT cell viability assay, HeLa; assay type: cell-based, human; conditions: HeLa, 48 hr
Procedure: The cell lines were procured from ATCC (American Type Culture Collection) and cultured in DMEM (Dulbecco's Modified Eagle Medium) supplemented with 10% FBS (fetal bovine serum) without antibiotics. Cells were grown and maintained in a humidified incubator at 37° C. with 5% CO2. For the MTT assay, cells were trypsinized and harvested at ˜80-90% confluency and seeded in 96 well plates at a density of 1×10^4 cells per well. The seeded cells were incubated overnight and treated with 1 μM, 3 μM, 5 μM, 7 μM, 10 μM, 20 μM, 30 μM or 50 μM (final concentration) of DMSO-dissolved compound for 48 hr. To rule out vehicle induced toxicity, only 0.5% of final DMSO concentration was added to the cells. Post-incubation, the compound treatment was removed and replaced with 0.5 mg/ml (final concentration) of freshly prepared MTT solution. After incubating for 3.5 hr at 37° C., 5% CO2 humidified incubator, MTT was carefully removed without aspirating the formazan crystals and replaced with equivalent volume of DMSO to dissolve the formazan crystals. The plates were then read using a multi-plate reader at 570 nm. The absorbance was recorded and % viability was calculated according to the following equation:
[formula] • where, Abt is the absorbance of compound treated cells and Abc is the absorbance of control cells.

[2] = cherrypick validation, same FP assay, read-out: % Inh. Cherry-pick
[3] = initial HTS, normalized to WT and E234G HYPE DMSO controls, read-out: % Inh. HTS
[4] = cherrypick validation, same FP assay
[5] = initial HTS, normalized to WT and E234G HYPE DMSO controls

T2 sequence (Q06277 3640-3777): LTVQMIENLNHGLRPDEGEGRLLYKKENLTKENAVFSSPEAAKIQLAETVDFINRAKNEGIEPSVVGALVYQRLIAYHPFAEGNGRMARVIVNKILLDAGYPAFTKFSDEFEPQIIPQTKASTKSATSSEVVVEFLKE

| SMILES | inhibition at 10 µM (E234G HYPE; [2]) | inhibition at 10 µM (E234G HYPE; [3]) | Mean % Inh. (E234G HYPE) | also measured |
| --- | --- | --- | --- | --- |
| CN(Cc1ccccn1)C(C(=O)O)c1ccc2c(c1)OCO2 (stereo not shown) [Compound I2.2] | 22.7% | 20.3% | 21.5% |  |
| CN(Cc1cccc2cnccc12)C(=O)c1cnc(-c2ccccn2)nc1O [Compound I2.3] |  |  | 32.9% | % Inh. Cherry-pick (E234G HYPE; [4]): 30.7%; % Inh. HTS (E234G HYPE; [5]): 35.0% |
| CCCc1cc(O)n(-c2nc3ccccc3[nH]2)n1 [Compound I2.4] | 31% | 27.8% | 29.4% |  |
| Cc1nn(-c2nc3ccccc3[nH]2)c2c1C(c1cc(Br)ccc1F)CC(=O)N2 (stereo not shown) [Compound I2.6] | 29.7% | 32.7% | 31.2% |  |
| Cc1nn(-c2nc3ccccc3[nH]2)c2c1C(c1ccc(F)cc1F)CC(=O)N2 (stereo not shown) [Compound I2.5] | 32.9% | 23.5% | 28.2% |  |
| CCCCn1ccnc1C1CCCN(Cc2ccccn2)C1 (stereo not shown) [Compound I2.1] |  |  | 31.1% | % Inh. Cherry-pick (E234G HYPE; [4]): 29.7%; % Inh. HTS (E234G HYPE; [5]): 32.5% |
| CCc1ccc(N2CC(c3noc(-c4ccc(C#N)cc4)n3)CC2=O)cc1 (stereo not shown) [Compound I2.9] | 27.8% | 27.2% | 27.5% |  |
| O=C1Nc2ccc(Br)cc2C12NN=C(c1ccccc1)S2 (stereo not shown) [Compound I2.7] | 34.2% | 20.9% | 27.6% |  |
| Clc1ccc(C(c2ccc(Cl)cc2)n2cc[n+](CC(OCc3ccc(Cl)cc3Cl)c3ccc(Cl)cc3Cl)c2)cc1 (stereo not shown) [Compound A1, calmidazolium] |  |  |  | effect on IbpA-2 AMPylation of Cdc42 [1]: lack of AMPylation enhancement; activation of WT HYPE autoAMPylation in gel (WT HYPE): bioactive above our DMSO control; effect on HYPE-mediated AMPylation in vitro (HYPE): enhance; concentration impacting cell viability (HeLa cells): ≤ 1 µM |
| Oc1ccc(CN2CCCCC2)c2cccnc12 [Compound I2.11] |  |  | 22.3% | % Inh. Cherry-pick (E234G HYPE; [4]): 24.6%; % Inh. HTS (E234G HYPE; [5]): 19.9% |
| Oc1cc(-c2ccc(F)cc2)nn1-c1nc2ccccc2[nH]1 [Compound I2.12] | 33.6% | 27.1% | 30.4% |  |
